Article PMC10977697 (PLOS ONE, 2024)
Like-named read-outs stand apart in the source and are kept apart here. Where a SMILES comes first, the peptide text is derived from it. Bridges are numbered along the chain shown (N, C = ends). Where no end group is shown, it is not given here.

Key:
HtrA1 FL = target: T1, HtrA1 FL (Homo sapiens, UniProt Q92743); assay type: binding; conditions: read-out: Kd(μM) SPR
T1 construct: HtrA1 (Q23-P480, 5654, Tni Baculovirus); made in house; host or cells: Trichoplusia ni (Tni) cells, baculovirus
T1 sequence (Q92743 23-480): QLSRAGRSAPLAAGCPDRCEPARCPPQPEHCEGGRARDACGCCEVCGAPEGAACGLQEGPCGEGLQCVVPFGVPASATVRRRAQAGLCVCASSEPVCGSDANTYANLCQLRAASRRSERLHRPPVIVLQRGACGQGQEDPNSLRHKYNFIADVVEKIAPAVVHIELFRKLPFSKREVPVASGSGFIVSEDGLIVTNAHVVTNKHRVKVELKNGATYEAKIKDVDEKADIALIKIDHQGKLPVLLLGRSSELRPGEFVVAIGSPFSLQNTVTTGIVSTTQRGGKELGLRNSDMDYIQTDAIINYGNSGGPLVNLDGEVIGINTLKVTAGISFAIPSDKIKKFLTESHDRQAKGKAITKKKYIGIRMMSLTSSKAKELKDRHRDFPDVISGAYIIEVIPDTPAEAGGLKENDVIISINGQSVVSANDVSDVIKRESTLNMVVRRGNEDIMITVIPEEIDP

HtrA1 = assay type: binding, human; conditions: ratio of signal for target protein over BSA background
Notch2Long = experiment: Spot phage ELISA, Notch2Long; assay type: binding, human; conditions: for ELISA: spot phage ELISA signal
[1] = target: T2, Notch2Long (Notch2 EGF6-EGF12) (Homo sapiens, UniProt Q04721); experiment: SPR binding of synthetic DCPs to Notch2Long; conditions: Biacore S200, 25°C, 50 μL/min; synthetic in vitro folded peptide, 3-fold dilution from 100 μM; biotinylated N2L on chip SA; steady state fitting; at least three independent experiments; n/d = no binding
T2 construct: Biotinylated N2L protein (D219–E418, made in-house); His tag (cleaved yes); made in house; host or cells: CHO
T2 sequence (Q04721 219-418): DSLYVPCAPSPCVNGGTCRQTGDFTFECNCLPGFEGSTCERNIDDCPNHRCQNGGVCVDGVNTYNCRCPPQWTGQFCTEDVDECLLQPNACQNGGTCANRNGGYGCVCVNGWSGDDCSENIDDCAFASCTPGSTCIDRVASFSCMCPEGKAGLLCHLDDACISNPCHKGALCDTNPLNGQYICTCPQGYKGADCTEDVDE
Method: All binding experiments were performed using a Biacore S200 instrument (GE Healthcare) at 25°C at a flow rate of 50 μL/min. The kinetics and affinity measurements were carried out using either single-cycle or multi-cycle kinetics (SCK or MCK), solvent corrected and referenced by subtracting the signal to the blank flow cell. Binding affinity and kinetic parameters (association and dissociation rate constants, and dissociation equilibrium constant) were calculated with the Biacore S200 Evaluation Software (version 1.1.1, Cytiva) using either a 1:1 binding model or a steady-state equilibrium model (according to the manufacturer’s instructions).
Biotinylated N2L protein (D219–E418, made in-house) and NRR protein (A1423–Q1677, made in-house) were captured at around 500, 1000 and 1500 RU on Sensor Chip SA (Cytiva).

R-spondin = experiment: Spot phage ELISA, R-spondin; assay type: binding, human; conditions: for S/N: ratio of signal for target protein over BSA background; for ELISA: spot phage ELISA signal, DCP displayed on M13 p8
HGFA = experiment: Spot phage ELISA, HGFA; assay type: binding, human; conditions: for S/N: ratio of signal for target protein over BSA background, S/N > 2 positive; for ELISA: spot phage ELISA signal, DCP displayed on M13 p8, phage supernatant 1:3 in PBT, anti-M13-HRP, TMB
trypsin = experiment: Phage ELISA of displayed DCPs on immobilized trypsin; conditions: DCP displayed on M13 p3 or p8, phage ELISA on trypsin-coated plates (Fig 1)
Method: The DCPs, incorporating an N-terminal gD-tag for quantification of display levels, were fused at the C-terminal to the major M13 coat protein p8 or the C-terminal domain of minor coat protein p3 (Fig 1A).
The display level was analyzed using phage ELISA described previously [47].

For `CC[C@H](C)[C@@H]1NC(=O)[C@H](Cc2ccccc2)NC(=O)[C@H](Cc2ccc(O)cc2)NC(=O)[C@H](C(C)C)NC(=O)[C@H](CCSC)NC(=O)[C@H](C(C)C)NC(=O)[C@@H]2CSSC[C@H](NC(=O)[C@H](CC(=O)O)NC(=O)[C@H](Cc3ccccc3)NC(=O)[C@H](C)N)C(=O)N[C@@H](CC(C)C)C(=O)NCC(=O)N[C@@H](CCC(N)=O)C(=O)N[C@H]3CSSC[C@H](NC(=O)[C@H](Cc4ccc(O)cc4)NC(=O)[C@@H]4CCCN4C(=O)[C@H](CCCCN)NC(=O)[C@H]([C@@H](C)O)NC(=O)[C@H](CCSC)NC(=O)[C@H](Cc4c[nH]cn4)NC1=O)C(=O)N[C@@H](CC(N)=O)C(=O)N[C@@H](CO)C(=O)N[C@@H](CO)C(=O)N[C@H](C(=O)N[C@H](C(=O)N[C@@H](CCCNC(=N)N)C(=O)O)[C@@H](C)O)CSSC[C@H](NC(=O)[C@H](CCCNC(=N)N)NC(=O)CNC3=O)C(=O)N[C@@H](CC(=O)O)C(=O)N[C@@H](Cc1ccccc1)C(=O)N[C@@H](Cc1c[nH]cn1)C(=O)N[C@@H](CCCCN)C(=O)N[C@@H](CC(C)C)C(=O)N[C@@H](CCC(N)=O)C(=O)N2` [HtrA1_AVR61] (HELM PEPTIDE1{A.F.D.C.L.G.Q.C.G.R.C.D.F.H.K.L.Q.C.V.M.V.Y.F.I.H.M.T.K.P.Y.C.N.S.S.C.T.R}$PEPTIDE1,PEPTIDE1,4:R3-18:R3|PEPTIDE1,PEPTIDE1,8:R3-31:R3|PEPTIDE1,PEPTIDE1,11:R3-35:R3$$$V2.0; N-terminus and C-terminus assumed), the Kd (HtrA1 FL; Biacore S200, 25°C, biotinylated HtrA1 FL on chip SA, 10 mM HEPES (8.0), 200mM NaCl, 0.25% CHAPS, 5% DMSO, steady state fitting, n/d = no binding) was greater than 20 µM and the S/N (HtrA1) was 24.4.
With `CC[C@H](C)[C@@H]1NC(=O)[C@@H]2CCCN2C(=O)[C@H](CCC(=O)O)NC(=O)[C@@H]2CSSC[C@@H]3NC(=O)[C@H](Cc4c[nH]cn4)NC(=O)[C@H](Cc4c[nH]c5ccccc45)NC(=O)[C@H](CC(C)C)NC(=O)[C@H]([C@@H](C)O)NC(=O)[C@H](Cc4c[nH]c5ccccc45)NC(=O)CNC(=O)[C@@H](NC(=O)CN)CSSC[C@H](NC(=O)CNC(=O)[C@H](C)NC(=O)[C@H](CC(C)C)NC(=O)[C@H](CSSC[C@@H](C(=O)NCC(=O)O)NC(=O)[C@H](Cc4c[nH]c5ccccc45)NC(=O)[C@H](Cc4c[nH]c5ccccc45)NC1=O)NC(=O)[C@H](CC(=O)O)NC(=O)[C@H](CO)NC(=O)[C@H](CC(=O)O)NC(=O)[C@H](CCC(N)=O)NC(=O)[C@H](CCCCN)NC3=O)C(=O)N[C@@H](C(C)C)C(=O)N2` [N2L-EET-03] (HELM PEPTIDE1{G.C.G.W.T.L.W.H.C.K.Q.D.S.D.C.L.A.G.C.V.C.E.P.I.W.W.C.G}$PEPTIDE1,PEPTIDE1,2:R3-19:R3|PEPTIDE1,PEPTIDE1,9:R3-21:R3|PEPTIDE1,PEPTIDE1,15:R3-27:R3$$$V2.0; N-terminus and C-terminus assumed) the “s/n ratio” value (Notch2Long; Table 3, affinity maturation clones, signal over BSA background) was 3.1, the ELISA (Notch2Long; Table 3, affinity maturation clones, display (p8 or p3) not given per clone) was 0.4 and the S/N (Notch2Long; initial hits, ratio of signal for target protein over BSA background) was 3.1. The ELISA (Notch2Long; initial hits, DCP displayed on M13 p8) was 0.35.
For `CC[C@H](C)[C@@H]1NC(=O)[C@@H](NC(=O)CN)CSSC[C@@H]2NC(=O)CNC(=O)[C@H](C)NC(=O)[C@H](CCC(=O)O)NC(=O)[C@@H]3CSSC[C@@H](C(=O)NCC(=O)O)NC(=O)[C@H](CCC(N)=O)NC(=O)[C@H]([C@@H](C)CC)NC(=O)[C@H](Cc4c[nH]c5ccccc45)NC(=O)[C@H](C(C)C)NC(=O)[C@H](CCC(=O)O)NC(=O)[C@H](CSSC[C@H](NC(=O)[C@H](Cc4c[nH]c5ccccc45)NC(=O)[C@H](CC(C)C)NC(=O)[C@H](Cc4c[nH]cn4)NC(=O)[C@H](CO)NC(=O)[C@H](CCCCN)NC1=O)C(=O)N1CCC[C@H]1C(=O)N[C@@H](CCCCN)C(=O)N[C@@H]([C@@H](C)O)C(=O)N[C@@H](CO)C(=O)N[C@@H](CC(=O)O)C(=O)N3)NC(=O)[C@H]([C@@H](C)CC)NC2=O` [N2L.EET31.43.24] (HELM PEPTIDE1{G.C.I.K.S.H.L.W.C.P.K.T.S.D.C.E.A.G.C.I.C.E.V.W.I.Q.C.G}$PEPTIDE1,PEPTIDE1,2:R3-19:R3|PEPTIDE1,PEPTIDE1,9:R3-21:R3|PEPTIDE1,PEPTIDE1,15:R3-27:R3$$$V2.0), the Kd [1] was 3.5 µM.
With `CC[C@H](C)[C@@H]1NC(=O)[C@@H](NC(=O)CN)CSSC[C@@H]2NC(=O)CNC(=O)[C@H](C)NC(=O)[C@H](CCC(=O)O)NC(=O)[C@@H]3CSSC[C@@H](C(=O)NCC(=O)O)NC(=O)[C@H](CCC(N)=O)NC(=O)[C@H]([C@@H](C)CC)NC(=O)[C@H](Cc4c[nH]c5ccccc45)NC(=O)[C@H]([C@@H](C)CC)NC(=O)[C@H](CCC(=O)O)NC(=O)[C@H](CSSC[C@H](NC(=O)[C@H](Cc4c[nH]c5ccccc45)NC(=O)[C@H](C(C)C)NC(=O)[C@H](Cc4c[nH]cn4)NC(=O)[C@H](CO)NC(=O)[C@H](CCCNC(=N)N)NC1=O)C(=O)N[C@@H](CCCCN)C(=O)N[C@@H](CCC(N)=O)C(=O)N[C@@H](CC(=O)O)C(=O)N[C@@H](CO)C(=O)N[C@@H](CC(=O)O)C(=O)N3)NC(=O)[C@H]([C@@H](C)CC)NC2=O` [N2L.EET31.43.43] (HELM PEPTIDE1{G.C.I.R.S.H.V.W.C.K.Q.D.S.D.C.E.A.G.C.I.C.E.I.W.I.Q.C.G}$PEPTIDE1,PEPTIDE1,2:R3-19:R3|PEPTIDE1,PEPTIDE1,9:R3-21:R3|PEPTIDE1,PEPTIDE1,15:R3-27:R3$$$V2.0) the Kd [1] was 3.5 µM.
Molecule “GCDPWIWQEWGVCKQDSDCLAGCVCGPNGFCG (also: bicyclic or more (positions not given here)) [R-spondin EETI-II 47]” has a S/N (R-spondin) of 13.7 and an ELISA (R-spondin) of 1.06.
In the case of “GCEWDWWFDQWICKQDSDCLAGCVCGPNGFCG (also: bicyclic or more (positions not given here)) [HGFA EET I-II 16]”, the S/N (HGFA) is reported as 14.5 and the ELISA (HGFA) is reported as 1.92.
For “GCLASHPWWSVWCKQDSDCLAGCVCQEMGICG (also: bicyclic or more (positions not given here)) [R-spondin EETI-II 31]”, the S/N (R-spondin) was 11.4 and the ELISA (R-spondin) was 0.72.
For “GCPRILKRCKRDSDCLAGCVCRGNGFCG (also: bicyclic or more (positions not given here)) [EETI-mut]”, the “phage binding to immobilized trypsin” value (trypsin) was “significantly disrupted”.
With “GCQWDWWMEEWWCKQDSDCLAGCVCGPNGFCG (also: bicyclic or more (positions not given here)) [HGFA EET I-II 14]” the S/N (HGFA) was 15.2 and the ELISA (HGFA) was 1.75.
Molecule “GCQWIAHWWLWDCKQDSDCLAGCVCGPNGFCG (also: bicyclic or more (positions not given here)) [HGFA EET I-II 86]” has a S/N (HGFA) of 22.6 and an ELISA (HGFA) of 1.92.
In the case of “GCYWDSWFDEWVCKQDSDCLAGCVCGPNGFCG (also: bicyclic or more (positions not given here)) [HGFA EET I-II 59]”, the S/N (HGFA) is reported as 13.4 and the ELISA (HGFA) is reported as 1.67.
In the case of “GLPVCGETCVGGTCNTPGCTCSWPVCTRN (also: bicyclic or more (positions not given here)) [kalata B1]”, the “phage binding to immobilized trypsin” value (trypsin) is reported as “did not exhibit any binding signal”.
For “GPSHSQYCHCGGIGYVGGHYCSCTNYQDEWGFESRCLPGAS [HGFA CBD 9]”, the S/N (HGFA) was 25.0 and the ELISA (HGFA) was 1.80.
With “GPTQSFWGWCGGIGYVGGRYCSGTTCQRPDAHWSQCLPGAS (disulfide 10-26, 21-36 (inferred)) [HtrA1_CBDamy86]” the Kd (HtrA1 FL) was 158 µM and the S/N (HtrA1) was 22.8.
In the case of “SGSDGGVCPKILKKCRRDSDCPGACICRGNGYCG (also: bicyclic or more (positions not given here)) [MCoTI-II]”, the “phage binding to immobilized trypsin” value (trypsin) is reported as “showed binding signals”.
